Values of other authors, collected in patent US20050287587A1, “Production of glycosylated macrolides in E. coli” (The Board of Trustees of the Leland Stanford Junior …, priority 2002, published 2005).

Conditions: general background statement, no strain or method given

For CC[C@H]1OC(=O)[C@H](C)[C@@H](O)[C@H](C)[C@@H](O)[C@@H](C)C[C@@H](C)C(=O)[C@H](C)[C@@H](O)[C@H]1C [6-deoxyerythronolide B], the antibacterial activity is given as “no antibacterial activity”.
